Test results published in patent publication US8153693B2, “Compounds for the selective treatment of the intestinal immuno-inflammatory component of the celiac disease” (Giuliani International Limited, priority 2007, dated 2012).

Tested on: cytokines
Experiment: Organ culture of duodenal biopsies, cytokines overall
Format: cell-based, human
Conditions: biopsies of celiac disease subjects versus subjects without celiac disease
Method: The biopsies were washed in saline for two minutes at least three times. The biopsies were placed in culture media having a volume equal to 1 ml: The biopsies are incubated in an O2 (95%) and CO2 (5%) atmosphere at a temperature of 37° C. for a period ranging from 4 h to 72 h. Three different amounts of medium are shared for the ELISA assay of Th1 and Th2 cytokines released in culture media.

In the case of `Nc1ccc(O)c(C(=O)O)c1` [Compound 5ASA, mesalazine], the “effect of Mesalazine in culture media on the cytokines” value is reported as “blocks the cytokines in celiac disease subjects only”.
